Organism: Rattus norvegicus
Test: DrugMatrix - Regimen: Daily Repeat
Format: toxicity, organism-based, Sprague-Dawley
Set-up: regimen Daily Repeat, gender Male, age 6-8 weeks
Details: in vivo, po, route oral GAVAGE, vehicle 100 % WATER; for ABSOLUTE BASOPHIL / ABSOLUTE EOSINOPHIL / ABSOLUTE LYMPHOCYTE / ABSOLUTE MONOCYTE / ABSOLUTE SEGMENTED NEUTROPHIL / BASOPHIL / EOSINOPHIL / ERYTHROCYTE COUNT / HEMATOCRIT / HEMOGLOBIN / LEUKOCYTE COUNT / LYMPHOCYTE / MEAN CORPUSCULAR HEMOGLOBIN / MEAN CORPUSCULAR HEMOGLOBIN CONCENTRATION / MEAN CORPUSCULAR VOLUME / MONOCYTE / NEUTROPHIL / NUCLEATED RED BLOOD CELLS / PLATELET COUNT: tissue Blood; for ALANINE AMINOTRANSFERASE / ALBUMIN / ALKALINE PHOSPHATASE / ASPARTATE AMINOTRANSFERASE / BLOOD UREA NITROGEN / CARBON DIOXIDE / CHLORIDE / CHOLESTEROL / CREATINE PHOSPHOKINASE / CREATININE / GLUCOSE / LACTATE DEHYDROGENASE / LIPASE / PHOSPHORUS / POTASSIUM / SODIUM / TOTAL BILIRUBIN / TOTAL PROTEIN / URIC ACID: tissue Plasma
[1] = 63 mg/kg, 120 h, dose level High, time 5 day
[2] = […], 72 h, dose 6.3 mg/Kg, dose level Low, time 3 day
[3] = […], 120 h, dose 6.3 mg/Kg, dose level Low, time 5 day

CNCCC=C1c2ccccc2CCc2ccccc21 [NORTRIPTYLINE]
ABSOLUTE BASOPHIL [1]: 0 CELLS/uL
ABSOLUTE EOSINOPHIL [1]: 0 CELLS/uL
ABSOLUTE LYMPHOCYTE [1]: 11759 CELLS/uL
ABSOLUTE MONOCYTE [1]: 53.67 CELLS/uL
ABSOLUTE SEGMENTED NEUTROPHIL [1]: 987.33 CELLS/uL
BASOPHIL [1]: 0%
EOSINOPHIL [1]: 0%
ERYTHROCYTE COUNT [1]: 5.77 x10E6/uL
HEMATOCRIT [1]: 35.97%
HEMOGLOBIN [1]: 14.67 G/DL
LEUKOCYTE COUNT [1]: 12.8 x10E3/uL
LYMPHOCYTE [1]: 91.67%
MEAN CORPUSCULAR HEMOGLOBIN [1]: 25.43 pg
MEAN CORPUSCULAR HEMOGLOBIN CONCENTRATION [1]: 40.77 G/DL
MEAN CORPUSCULAR VOLUME [1]: 62.33 fL
MONOCYTE [1]: 0.33%
NEUTROPHIL [1]: 8%
NUCLEATED RED BLOOD CELLS [1]: 0 /100WBC
PLATELET COUNT [1]: 1245.67 x10E3/uL
ALANINE AMINOTRANSFERASE [1]: 45.67 u/L
ALBUMIN [1]: 4.27 G/DL
ALKALINE PHOSPHATASE [1]: 460.33 u/L
ASPARTATE AMINOTRANSFERASE [1]: 77.33 u/L
BLOOD UREA NITROGEN [1]: 16.33 mg/dL
CARBON DIOXIDE [1]: 29 mmol/L
CHLORIDE [1]: 101.33 MEQ/L
CHOLESTEROL [1]: 78 mg/dL
CREATINE PHOSPHOKINASE [1]: 346.33 u/L
CREATININE [1]: 0.24 mg/dL
GLUCOSE [1]: 205 mg/dL
LACTATE DEHYDROGENASE [1]: 142 u/L
LIPASE [1]: 9.67 u/L
PHOSPHORUS [1]: 11.23 mg/dL
POTASSIUM [1]: 4.99 MEQ/L
SODIUM [1]: 144.43 MEQ/L
TOTAL BILIRUBIN [1]: 0.17 mg/dL
TOTAL PROTEIN [1]: 6.07 G/DL
URIC ACID [1]: 1.6 mg/dL
ABSOLUTE BASOPHIL [2]: 0 CELLS/uL
ABSOLUTE EOSINOPHIL [2]: 47.67 CELLS/uL
ABSOLUTE LYMPHOCYTE [2]: 13905.67 CELLS/uL
ABSOLUTE MONOCYTE [2]: 0 CELLS/uL
ABSOLUTE SEGMENTED NEUTROPHIL [2]: 1246.67 CELLS/uL
BASOPHIL [2]: 0%
EOSINOPHIL [2]: 0.33%
ERYTHROCYTE COUNT [2]: 5.4 x10E6/uL
HEMATOCRIT [2]: 34.5%
HEMOGLOBIN [2]: 13.8 G/DL
LEUKOCYTE COUNT [2]: 15.2 x10E3/uL
LYMPHOCYTE [2]: 90.67%
MEAN CORPUSCULAR HEMOGLOBIN [2]: 25.57 pg
MEAN CORPUSCULAR HEMOGLOBIN CONCENTRATION [2]: 39.97 G/DL
MEAN CORPUSCULAR VOLUME [2]: 63.87 fL
MONOCYTE [2]: 0%
NEUTROPHIL [2]: 9%
NUCLEATED RED BLOOD CELLS [2]: 0.33 /100WBC
PLATELET COUNT [2]: 1291.33 x10E3/uL
ALANINE AMINOTRANSFERASE [2]: 51.33 u/L
ALBUMIN [2]: 3.87 G/DL
ALKALINE PHOSPHATASE [2]: 385.33 u/L
ASPARTATE AMINOTRANSFERASE [2]: 86.33 u/L
BLOOD UREA NITROGEN [2]: 14.33 mg/dL
CARBON DIOXIDE [2]: 34 mmol/L
CHLORIDE [2]: 99.33 MEQ/L
CHOLESTEROL [2]: 71.33 mg/dL
CREATINE PHOSPHOKINASE [2]: 248 u/L
CREATININE [2]: 0.17 mg/dL
GLUCOSE [2]: 136.67 mg/dL
LACTATE DEHYDROGENASE [2]: 250.33 u/L
LIPASE [2]: 10 u/L
PHOSPHORUS [2]: 11.47 mg/dL
POTASSIUM [2]: 6.49 MEQ/L
SODIUM [2]: 143 MEQ/L
TOTAL BILIRUBIN [2]: 0.23 mg/dL
TOTAL PROTEIN [2]: 5.9 G/DL
URIC ACID [2]: 1.23 mg/dL
ABSOLUTE BASOPHIL [3]: 0 CELLS/uL
ABSOLUTE EOSINOPHIL [3]: 0 CELLS/uL
ABSOLUTE LYMPHOCYTE [3]: 14550 CELLS/uL
ABSOLUTE MONOCYTE [3]: 394 CELLS/uL
ABSOLUTE SEGMENTED NEUTROPHIL [3]: 2022.67 CELLS/uL
BASOPHIL [3]: 0%
EOSINOPHIL [3]: 0%
ERYTHROCYTE COUNT [3]: 5.68 x10E6/uL
HEMATOCRIT [3]: 35.47%
HEMOGLOBIN [3]: 14.63 G/DL
LEUKOCYTE COUNT [3]: 16.97 x10E3/uL
LYMPHOCYTE [3]: 85.67%
MEAN CORPUSCULAR HEMOGLOBIN [3]: 25.87 pg
MEAN CORPUSCULAR HEMOGLOBIN CONCENTRATION [3]: 41.2 G/DL
MEAN CORPUSCULAR VOLUME [3]: 62.7 fL
MONOCYTE [3]: 2.33%
NEUTROPHIL [3]: 12%
NUCLEATED RED BLOOD CELLS [3]: 0 /100WBC
PLATELET COUNT [3]: 1314.33 x10E3/uL
ALANINE AMINOTRANSFERASE [3]: 49.33 u/L
ALBUMIN [3]: 4.63 G/DL
ALKALINE PHOSPHATASE [3]: 430.67 u/L
ASPARTATE AMINOTRANSFERASE [3]: 87.33 u/L
BLOOD UREA NITROGEN [3]: 23 mg/dL
CARBON DIOXIDE [3]: 28 mmol/L
CHLORIDE [3]: 98.33 MEQ/L
CHOLESTEROL [3]: 70.33 mg/dL
CREATINE PHOSPHOKINASE [3]: 246 u/L
CREATININE [3]: 0.24 mg/dL
GLUCOSE [3]: 143.33 mg/dL
LACTATE DEHYDROGENASE [3]: 121 u/L
LIPASE [3]: 11 u/L
PHOSPHORUS [3]: 12.13 mg/dL
POTASSIUM [3]: 7.2 MEQ/L
SODIUM [3]: 141.23 MEQ/L
TOTAL BILIRUBIN [3]: 0.27 mg/dL
TOTAL PROTEIN [3]: 6.6 G/DL
URIC ACID [3]: 2.13 mg/dL

From ChEMBL document CHEMBL3885881, “DrugMatrix”
